Measured values: patent publication US20220119856A1, “STALL SIDE METHOD FOR THE DETECTION OF BACTERIA IN DAIRY CATTLE” (TRANSFORMATIVE TECHNOLOGIES, priority 2019, published 2022)

Tests used:
Apyrase = molecular target: T1, Apyrase (Solanum tuberosum, UniProt P80595); test: Inactivation of excess Apyrase in raw Bovine milk by surfactants, signal after ATP standard added; format: biochemical; conditions: 50 ul raw Bovine milk pretreated with 284 mU Apyrase
T1 construct: purchased Sigma Chemical A6535
T1 sequence (P80595 1-454): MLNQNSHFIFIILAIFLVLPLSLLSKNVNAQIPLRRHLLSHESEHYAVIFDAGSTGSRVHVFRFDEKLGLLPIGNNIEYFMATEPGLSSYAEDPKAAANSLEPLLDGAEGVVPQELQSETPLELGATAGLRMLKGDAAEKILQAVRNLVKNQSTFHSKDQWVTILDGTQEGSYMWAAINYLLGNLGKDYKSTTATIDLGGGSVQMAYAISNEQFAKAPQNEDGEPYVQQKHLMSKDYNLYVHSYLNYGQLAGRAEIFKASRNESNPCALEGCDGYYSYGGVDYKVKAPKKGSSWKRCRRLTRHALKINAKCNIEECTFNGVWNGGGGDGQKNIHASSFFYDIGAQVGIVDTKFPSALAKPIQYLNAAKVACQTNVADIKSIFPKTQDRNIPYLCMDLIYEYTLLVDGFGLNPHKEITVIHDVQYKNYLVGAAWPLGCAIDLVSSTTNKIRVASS
Protocol: It is important to eliminate any excess Apyrase that may remain in the raw Bovine milk sample after treatment with the Apyrase enzyme that was used to eliminate endogenous ATP in Example #4. […] Among the reagents evaluated were: dimethyldioctadecylammonium chloride, laureltrimethylammonium bromide (DTAB), benzyldimethyldodecylammonium bromide (BDDABr), and cetyl trimethylammonium bromide (CTAB). The experiment was performed by adding between 0.02% and 1% of the selected surfactant to 50 ul of raw Bovine milk that had treated previously been treated with 284 mU of Apyrase as detailed in example #4. The levels of ATP were confirmed by adding 50 uL of Promega luciferin-luciferase reagent (containing 25 mM HEPES buffer (pH 7.5), 40 pg luciferase, 100 pM luciferin, and 10 mM MgSO4). As expected the readings determined on the Hygiena Ensure Luminometer were too low to measure, since all of the ATP had already been eliminated by Apyrase treatment in Example #4. After the initially readings were determined as described above, 10 uL of a 10^−8M solution of ATP standard (Sigma Chemical) was added to the samples above and the bioluminescent signal was determined on a Hygiena Ensure Luminometer. As expected a signal was now detected, since all of the excess Apyrase added earlier had been eliminated by the surfactants being evaluated. The best results were seen when the detergents benzyldimethyldodecylammonium bromide (BDDABr) at 0.05% concentration and, laureltrimethylammonium bromide (DTAB) at 0.5% and 1.0% concentrations were added to the samples.

[1] = Elimination of endogenous ATP in raw Bovine milk, luciferin-luciferase readout; format: biochemical
Protocol: All assays were performed using 50 uL of raw Bovine milk and 50 uL of Promega luciferin-luciferase reagent (containing 25 mM HEPES buffer (pH 7.5), 40 pg luciferase, 100 pM luciferin, and 10mM MgSO4). Bioluminescent measurements were determined using the Hygiena Ensure System. The test was performed in both 100% and 50% raw Bovine milk. […] At a concentration of 284 mUnits the apyrase is able to deplete the endogenous ATP in 50 μL of raw milk in less than 30 seconds. The diminution of ATP was so fast with higher concentrations of Apyrase (diluting the enzyme) resulting in the inability to take meaningful reading, since all of the ATP was gone within 10 seconds. There are numerous commercially available ATP-degrading enzymes that can be tested for this purpose, but in our system, the Apyrase enzyme appears more than sufficient.

[2] = Sigma Chemical A6535, vendor specification; cited from earlier work
S. aureus = test: Rupture of gram-positive bacteria by lytic enzyme, read by bioluminescence of released ATP; format: cell-based; conditions: 0.05% enzyme, PBS buffer, mastitic milk or healthy milk
Text: As the goal of this invention is to target and detect only gram positive organisms active in mastitis such as: S. aureus, Coagulase negative staphylococci (CoNS) and S. uberi, it is important to identify lytic enzymes that can effectively rupture the cell walls of these pathogens in the presence of raw Bovine milk. […] The action against specific gram-positive organisms of these enzymes has been verified in PBS buffered solutions, but their ability to rupture bacteria had to be verified to in raw milk. The first candidates tested in for their activity in Bovine milk were Lysostaphin (Lyso) which attacks S. aureus, and Streptococcal phage lytic enzyme (PlyC) which attacks Streptococcus uberis. In all reactions, a concentration a of 0.05% of the phage lytic enzyme was used to evaluate the time required to rupture the cell wall of gram-positive bacteria in raw Bovine milk, as well as in a Phosphate-buffered saline (PBS) solution. It was determined that that in one hour, PlyC can eradicate up to 6 logs of S. uberis in PBS buffer, and either mastitic milk or healthy milk. The degree of lysing was determined by bioluminescence produced by the ATP released from the ruptured cells as described earlier. We then lowered the bacterial load to 2 logs of S. uberis in PBS buffer, and either mastitic milk or healthy milk, and it was determined that the PlyC can eradicate this bacterial load in 3 minutes or less. Similar experiments were performed with Lysostaphin (Lyso), which attacks S. aureus, and we determined we that can eradicate up to 6 logs of S. aureus in PBS buffer, and either mastitic milk or healthy milk in under 25 minutes. We then lowered the bacterial load to 2 logs of S. aureus in PBS buffer and either mastitic milk or healthy milk, and it was determined that the Lyso can eradicate this bacterial load in 2 minutes or less.

[3] = system: somatic cells present in raw Bovine milk; test: Rupture of somatic cells in raw Bovine milk, ATP released; format: cell-based; conditions: in under 90 seconds; raw Bovine milk with predetermined somatic cell counts
Protocol: A number of surfactants (detergents) were evaluated for their ability to rupture the somatic cells present in raw Bovine milk samples. Among the reagents tested were Triton X100 (Sigma Chemical) and Neonol AF9-10 (Nonoxynol-9) (Elarum Petrochemicals). Determinations using both surfactants were performed on raw Bovine milk samples in which somatic cell counts were predetermined. […] The number of somatic cell ruptured was determined by quantifying the ATP released in 50 uL samples of treated raw Bovine milk (as a function of time) using 50 uL of Promega luciferin-luciferase reagent (containing 25 mM HEPES buffer (pH 7.5), 40 pg luciferase, 100 pM luciferin, and 10 mM MgSO4). Bioluminescent measurements were performed using a Hygiena Ensure luminometer and all readings were blank corrected.

CCCCCCCCCCCC[N+](C)(C)Cc1ccccc1.[Br-] [BDDABr, benzyldimethyldodecylammonium bromide]
inactivation of Apyrase (in words) (Apyrase; 0.05% surfactant): best results

CCCCCCCCCCCC[N+](C)(C)C.[Br-] [DTAB, laureltrimethylammonium bromide]
inactivation of Apyrase (in words) (Apyrase; 0.5% surfactant): best results | inactivation of Apyrase (in words) (Apyrase; 1.0% surfactant): best results

Apyrase
elimination of endogenous ATP (in words) ([1]; 100% and 50% raw Bovine milk): works well | time to deplete the endogenous ATP ([1]; 284 mUnits apyrase, 50 μL of raw milk): less than 30 seconds | time until all of the ATP was gone ([1]; higher concentrations of Apyrase): ≤ 10 s | ATPase activity of the enzyme preparation [2]: ≥ 200 units/mg protein

Lysostaphin: Lysostaphin (Lyso) which attacks S. aureus
time to eradicate bacterial load of 2 logs of S. aureus (S. aureus): ≤ 2 minutes | time to eradicate up to 6 logs of S. aureus (S. aureus): under 25 minutes | bacterial load of S. aureus eradicated (S. aureus; in under 25 minutes): up to 6 logs

Nonoxynol-9 [Neonol-9-10]
ability to rupture somatic cells (in words) [3]: superior to the Triton X100
